Source: PubChem BioAssay (NCI)
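Dose response: 5 concentrations. Exposure: 48 h. Format: 96-well plates. Endpoint: linear interpolation; highest concentration if not reached. Here, GI50 denotes the concentration required for 50% inhibition of growth. At the TGI there is no net growth.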

Columns and labels:
Assay in all cases: NCI-60 cell line screen, 48 h
HCT-15 colon = tested on: HCT-15 colon
LOX IMVI melanoma = tested on: LOX IMVI melanoma
SW-620 colon = tested on: SW-620 colon
HCT-116 colon = tested on: HCT-116 colon
MALME-3M melanoma = tested on: MALME-3M melanoma
HOP-62 NSCLC = tested on: HOP-62 NSCLC
OVCAR-4 ovarian = tested on: OVCAR-4 ovarian
HOP-92 NSCLC = tested on: HOP-92 NSCLC
HL-60(TB) leukemia = tested on: HL-60(TB) leukemia
HCC-2998 colon = tested on: HCC-2998 colon
MDA-MB-468 breast = tested on: MDA-MB-468 breast
T-47D breast = tested on: T-47D breast
M14 melanoma = tested on: M14 melanoma
A549 NSCLC = tested on: A549 NSCLC
PC-3 prostate = tested on: PC-3 prostate
NCI-H23 lung = tested on: NCI-H23 lung
CCRF-CEM leukemia = tested on: CCRF-CEM leukemia
MDA-MB-435 = tested on: MDA-MB-435
SF-295 CNS = tested on: SF-295 CNS
SK-MEL-28 melanoma = tested on: SK-MEL-28 melanoma
HS 578T breast = tested on: HS 578T breast
IGROV1 ovarian = tested on: IGROV1 ovarian
ACHN renal = tested on: ACHN renal
NCI-H522 lung = tested on: NCI-H522 lung
SK-MEL-2 melanoma = tested on: SK-MEL-2 melanoma
NCI/ADR-RES ovarian = tested on: NCI/ADR-RES ovarian
UACC-62 melanoma = tested on: UACC-62 melanoma
SNB-19 CNS = tested on: SNB-19 CNS
UACC-257 melanoma = tested on: UACC-257 melanoma
SK-OV-3 ovarian = tested on: SK-OV-3 ovarian
786-0 renal = tested on: 786-0 renal
MDA-MB-231 breast = tested on: MDA-MB-231 breast
MOLT-4 leukemia = tested on: MOLT-4 leukemia
TK-10 renal = tested on: TK-10 renal
NCI-H460 lung = tested on: NCI-H460 lung
OVCAR-3 ovarian = tested on: OVCAR-3 ovarian
SF-268 CNS = tested on: SF-268 CNS
UO-31 renal = tested on: UO-31 renal
COLO 205 colon = tested on: COLO 205 colon
A498 renal = tested on: A498 renal
U251 CNS = tested on: U251 CNS
K-562 leukemia = tested on: K-562 leukemia
BT-549 breast = tested on: BT-549 breast
KM12 colon = tested on: KM12 colon
OVCAR-8 ovarian = tested on: OVCAR-8 ovarian
HT29 colon = tested on: HT29 colon
RPMI-8226 leukemia = tested on: RPMI-8226 leukemia
SNB-75 CNS = tested on: SNB-75 CNS
RXF 393 renal = tested on: RXF 393 renal
OVCAR-5 ovarian = tested on: OVCAR-5 ovarian
CAKI-1 renal = tested on: CAKI-1 renal
MCF7 breast = tested on: MCF7 breast
SK-MEL-5 melanoma = tested on: SK-MEL-5 melanoma
DU-145 prostate = tested on: DU-145 prostate
EKVX NSCLC = tested on: EKVX NSCLC
SF-539 CNS = tested on: SF-539 CNS
SN12C renal = tested on: SN12C renal
NCI-H226 lung = tested on: NCI-H226 lung

## COC(=O)C[C@](O)(CCCC(C)C)C(=O)O[C@H]1C(OC)=C[C@@]23CCCN2CCc2cc4c(cc2[C@@H]13)OCO4
HCT-15 colon
  GI50: 1130 nM
  TGI: 4220 nM
LOX IMVI melanoma
  GI50: 852 nM
  TGI: 4450 nM
SW-620 colon
  GI50: 1490 nM
  TGI: 32500 nM
HCT-116 colon
  GI50: 992 nM
  TGI: 5440 nM
MALME-3M melanoma
  GI50: 888 nM
  TGI: 3220 nM
HOP-62 NSCLC
  GI50: 2800 nM
  TGI: 30000 nM
OVCAR-4 ovarian
  GI50: 1640 nM
  TGI: 17000 nM
HOP-92 NSCLC
  GI50: 2300 nM
  TGI: 18600 nM
HL-60(TB) leukemia
  GI50: 771 nM
  TGI: 2270 nM
HCC-2998 colon
  GI50: 723 nM
  TGI: 2710 nM
MDA-MB-468 breast
  GI50: 869 nM
  TGI: 3200 nM
T-47D breast
  GI50: 1620 nM
  TGI: 31800 nM
M14 melanoma
  GI50: 1140 nM
  TGI: 4660 nM
A549 NSCLC
  GI50: 1390 nM
  TGI: 17700 nM
PC-3 prostate
  GI50: 1380 nM
  TGI: 14600 nM
NCI-H23 lung
  GI50: 1350 nM
  TGI: 6660 nM
CCRF-CEM leukemia
  GI50: 1020 nM
  TGI: 7080 nM
MDA-MB-435
  GI50: 1830 nM
  TGI: 12900 nM
SF-295 CNS
  GI50: 1490 nM
  TGI: 11600 nM
SK-MEL-28 melanoma
  GI50: 1290 nM
  TGI: 8710 nM
HS 578T breast
  GI50: 2120 nM
  TGI: 18500 nM
IGROV1 ovarian
  GI50: 1770 nM
  TGI: 18800 nM
ACHN renal
  GI50: 1210 nM
  TGI: 6610 nM
NCI-H522 lung
  GI50: 1030 nM
  TGI: 2970 nM
SK-MEL-2 melanoma
  GI50: 3960 nM
  TGI: 12700 nM
NCI/ADR-RES ovarian
  GI50: 2550 nM
  TGI: 19000 nM
UACC-62 melanoma
  GI50: 3150 nM
  TGI: 16600 nM
SNB-19 CNS
  GI50: 917 nM
  TGI: 6240 nM
UACC-257 melanoma
  GI50: 2160 nM
  TGI: 15600 nM
SK-OV-3 ovarian
  GI50: 1620 nM
  TGI: 38200 nM
786-0 renal
  GI50: 1960 nM
  TGI: 14300 nM
MDA-MB-231 breast
  GI50: 3880 nM
  TGI: 14600 nM
MOLT-4 leukemia
  GI50: 699 nM
  TGI: 3400 nM
TK-10 renal
  GI50: 4120 nM
  TGI: 27300 nM
NCI-H460 lung
  GI50: 695 nM
  TGI: 4780 nM
OVCAR-3 ovarian
  GI50: 1130 nM
  TGI: 8520 nM
SF-268 CNS
  GI50: 5010 nM
  TGI: 22800 nM
UO-31 renal
  GI50: 1070 nM
  TGI: 11200 nM
COLO 205 colon
  GI50: 1790 nM
  TGI: 8730 nM
A498 renal
  GI50: 776 nM
  TGI: 5780 nM
U251 CNS
  GI50: 1210 nM
  TGI: 11800 nM
K-562 leukemia
  GI50: 1140 nM
  TGI: 11100 nM
BT-549 breast
  GI50: 995 nM
  TGI: 3740 nM
KM12 colon
  GI50: 1540 nM
  TGI: 21600 nM
OVCAR-8 ovarian
  GI50: 1790 nM
  TGI: 19700 nM
HT29 colon
  GI50: 1160 nM
  TGI: 5990 nM
RPMI-8226 leukemia
  GI50: 1050 nM
  TGI: 2990 nM
SNB-75 CNS
  GI50: 1970 nM
  TGI: 13900 nM
RXF 393 renal
  GI50: 641 nM
  TGI: 2180 nM
OVCAR-5 ovarian
  GI50: 2560 nM
  TGI: 15400 nM
CAKI-1 renal
  GI50: 2410 nM
  TGI: 35200 nM
MCF7 breast
  GI50: 751 nM
  TGI: 2790 nM
SK-MEL-5 melanoma
  GI50: 823 nM
  TGI: 2450 nM
DU-145 prostate
  GI50: 1910 nM
  TGI: 17900 nM
EKVX NSCLC
  GI50: 2290 nM
  TGI: 18100 nM
SF-539 CNS
  GI50: 838 nM
  TGI: 2240 nM
SN12C renal
  GI50: 3620 nM
  TGI: 23200 nM
NCI-H226 lung
  GI50: 940 nM
  TGI: 7230 nM
